{
  "source": "patent EP0217621A2",
  "about": "“Macromolecular tumor cell growth-inhibiting antibiotic” (SMITHKLINE BECKMAN CORPORATION, priority 1985, dated 1987)",
  "key": {"[1]": {"system": "P388 leukemia", "assay": "in vivo ip P388 leukemia mouse model", "parameters": "species or system B6D2F1 mice", "details": "positive control, 1 mg/kg/day", "from_the_text": "P388 lymphocytic leukemia is currently the most widely used animal tumor model for screening for antitumor agents and for detailed evaluation of active compounds. This tumor system is widely accepted as an antitumor agent screening tool because it is sensitive to virtually all of the clinically active antineoplastic agents; quantitative and reproducible: amenable for large-scale screening; and predictive for activity in other animal tumor models. […] Rpts. (Part III), 3, 1-103 (1972)]: • 10^6 P388 leukemia cells are inoculated ip in B6D2F1 mice. Twenty-four hours later, if the tumor inoculum proves to be free of bacterial contamination (as determined by 24 hours incubation in thioglycollate broth), animals are randomized into groups of 6 and housed in shoebox cages. The purified active component of ATCC 53270 was dissolved in 0.9 percent NaCl solution (normal saline) at an appropriate concentration so that the desired dose was delivered in a volume of 0.5 ml. The crude broth of ATCC 53270 was administered undiluted or diluted with normal saline. Such saline solutions were stored in amber bottles at 4°C. The saline solution of the purified active component of ATCC 53270, saline solution of the crude broth of ATCC 53270 or undiluted crude broth of ATCC 53270 are administered ip on Days 1 through 5 (i.e. treatment is initiated 24 hrs after tumor inoculation). […] Animals are weighed as a group on Days 1, 5 and 9 and average weight change (δ wt.) is used as a reflection of toxicity. Each experiment also includes an inoculum titration -- groups of 8 mice inoculated ip with 10^5 to 10^0 P388 leukemia cells. The titration is used to calculate cell kill achieved by treatment with drugs. Animals are monitored daily for mortality and experiments are terminated after 45 days. The endpoint is median survival time (MST) and increase in lifespan (ILS) which is the percentage of increase in MST relative to untreated controls. Untreated controls inoculated ip with 10^6 P388 leukemia cells generally survive for a median of 9 to 11 days. A drug is considered active if it produces > 25 percent ILS."}, "[2]": {"system": "ADJ-PC6 Plasmacytoma", "assay": "in vivo ADJ-PC6 Plasmacytoma tumor model", "parameters": "species or system BALB/c female mice", "description": "Likewise, AAC-345, in the form of the crude broth of ATCC 53270 and the purified active component of ATCC 53270, was tested in an additional in vivo tumor model known as ADJ-PC6 Plasmacytoma according to the following assay [see Cleare et al., J. Biochimie, 60, 830-850 (1978)]: • Tumor cells are carried by serial sc passage in BALB/c female mice and then collected aseptically on ca. Day 21 and minced in Hank's balanced salt solution. The cells are then dispersed by homogenizer, and cell concentration is adjusted to 4×10^6 viable (trypan blue-excluding) cells per ml by hemocytometer counts. A total of 0.5 ml (2x10^6 cells) is implanted sc on the right flank of BALB/c female mice in groups of 8. Treatment is given ip on Days 1-10, and tumors are measured in perpendicular diameters with a vernier caliper approximately three (3) weeks after tumor implantation (Days 18-21). Generally, > 75% inhibition of tumor growth reflects significant antitumor effect."}},
  "data": [
    {"compound": "N.N.[Cl][Pt][Cl]", "note": "[Cisplatin]", "values": [
      {"measurement": "ILS (increase in lifespan)", "setting": "[1]; Experiment I", "result": 117, "unit": "%"},
      {"measurement": "Median Survival Time", "setting": "[1]; Experiment I", "result": 19.5, "unit": "days"},
      {"measurement": "Weight Change Day 5", "setting": "[1]; Experiment I", "result": -0.2, "unit": "gm"},
      {"measurement": "Weight Change Day 9", "setting": "[1]; Experiment I", "result": "+1.4 gm"},
      {"measurement": "ILS (increase in lifespan)", "setting": "[1]; Experiment II", "result": 89, "unit": "%"},
      {"measurement": "Median Survival Time", "setting": "[1]; Experiment II", "result": 17, "unit": "days"},
      {"measurement": "Weight Change Day 5", "setting": "[1]; Experiment II", "result": -0.6, "unit": "gm"},
      {"measurement": "Weight Change Day 9", "setting": "[1]; Experiment II", "result": "+1.2 gm"},
      {"measurement": "TGI (percent of tumor growth inhibition)", "setting": "[2]; Experiment I, 3 mg/kg/day ip Days 1-10, Day 21", "result": 100, "unit": "%"},
      {"measurement": "Mean Tumor Volume", "setting": "[2]; Experiment I, 3 mg/kg/day ip Days 1-10, measured Day 21", "result": "0 ± 0", "unit": "mm^3"},
      {"measurement": "tumor growth inhibition", "setting": "[2]; positive control, general statement in the method", "result": "complete tumor growth inhibition"}
    ]}
  ]
}
